Measurements: the NIST ThermoML archive (doi:10.1016/j.fluid.2012.10.002)
“And” between values parts separate entries of the source, which are not always exact repeats. Equal entries are not always repeated. Numbers after ± are expanded uncertainties.

Experiment: xn = mol fraction of the nth substance listed
Details: Gas, Frequency=0.05 MHz, Linear variable-path acoustic interferometer

FC(F)(F)C(F)(F)F [hexafluoroethane] + FC(F)(F)C(F)(F)C(F)(F)F
x1 = 1
Details	speed of sound [m/s]
261.1 K, 183 kPa	127.95 ± 0.49
263.74 K, 185 kPa	128.64 ± 0.49
266.3 K, 186 kPa	129.3 ± 0.49
268.82 K, 188 kPa	129.95 ± 0.5
270.22 K, 189 kPa	130.3 ± 0.5
271.26 K, 190 kPa	130.57 ± 0.49
273.89 K, 192 kPa	131.26 ± 0.49
276.33 K, 194 kPa	131.87 ± 0.49
278.84 K, 195 kPa	132.51 ± 0.49
281.3 K, 197 kPa	133.11 ± 0.49
281.31 K, 197 kPa	133.1 ± 0.49
283.84 K, 199 kPa	133.77 ± 0.49
286.31 K, 201 kPa	134.35 ± 0.49
288.82 K, 203 kPa	135 ± 0.49
293.64 K, 206 kPa	136.18 ± 0.51
296.91 K, 208 kPa	136.93 ± 0.52
301.03 K, 212 kPa	137.94 ± 0.5
303.69 K, 213 kPa	138.56 ± 0.5
306.24 K, 215 kPa	139.22 ± 0.52
308.82 K, 217 kPa	139.82 ± 0.52
311.28 K, 219 kPa	140.41 ± 0.51
313.79 K, 221 kPa	141 ± 0.51
318.78 K, 224 kPa	142.17 ± 0.5
323.78 K, 228 kPa	143.37 ± 0.5

FC(F)(F)C(F)(F)C(F)(F)F [octafluoropropane] + FC(F)(F)C(F)(F)F
Details	speed of sound
258.87 K, 181 kPa, x2 = 0	104.06 ± 0.47 m/s
261.04 K, 214 kPa, x2 = 0.146	106.6 ± 0.47 m/s
261.17 K, 183 kPa, x2 = 0	104.66 ± 0.47 m/s
263.69 K, 217 kPa, x2 = 0.146	107.31 ± 0.47 m/s
266.22 K, 219 kPa, x2 = 0.146	107.96 ± 0.47 m/s
268.73 K, 189 kPa, x2 = 0	106.57 ± 0.47 m/s
268.76 K, 222 kPa, x2 = 0.146	108.61 ± 0.47 m/s
270.28 K, 190 kPa, x2 = 0	106.94 ± 0.47 m/s
271.52 K, 214 kPa, x2 = 0.11	108.77 ± 0.47 m/s
271.54 K, 224 kPa, x2 = 0.146	109.31 ± 0.47 m/s
273.74 K, 193 kPa, x2 = 0	107.79 ± 0.47 m/s
273.82 K, 227 kPa, x2 = 0.146	109.89 ± 0.47 m/s
273.86 K, 202 kPa, x2 = 0.048	108.5 ± 0.47 m/s
273.88 K, 216 kPa, x2 = 0.11	109.36 ± 0.47 m/s
273.9 K, 216 kPa, x2 = 0.11	109.35 ± 0.47 m/s
276.23 K, 195 kPa, x2 = 0	108.4 ± 0.73 m/s
276.3 K, 219 kPa, x2 = 0.11	109.94 ± 0.47 m/s
276.35 K, 229 kPa, x2 = 0.146	110.52 ± 0.47 m/s
278.61 K, 206 kPa, x2 = 0.048	109.65 ± 0.47 m/s
278.75 K, 197 kPa, x2 = 0	109 ± 0.73 m/s
279.06 K, 231 kPa, x2 = 0.146	111.21 ± 0.47 m/s
281.01 K, 208 kPa, x2 = 0.048	110.21 ± 0.47 m/s
281.09 K, 223 kPa, x2 = 0.11	111.13 ± 0.47 m/s
281.24 K, 199 kPa, x2 = 0	109.59 ± 0.57 m/s
281.35 K, 233 kPa, x2 = 0.146	111.76 ± 0.47 m/s
281.94 K, 224 kPa, x2 = 0.11	111.33 ± 0.47 m/s
283.42 K, 225 kPa, x2 = 0.11	111.69 ± 0.47 m/s
283.48 K, 210 kPa, x2 = 0.048	110.83 ± 0.47 m/s
283.81 K, 201 kPa, x2 = 0	110.19 ± 0.57 m/s
284.05 K, 236 kPa, x2 = 0.146	112.44 ± 0.48 m/s
285.85 K, 212 kPa, x2 = 0.048	111.38 ± 0.48 m/s
285.87 K, 212 kPa, x2 = 0.048	111.39 ± 0.48 m/s
285.92 K, 227 kPa, x2 = 0.11	112.29 ± 0.48 m/s
286.31 K, 203 kPa, x2 = 0	110.78 ± 0.48 m/s
286.39 K, 238 kPa, x2 = 0.146	112.99 ± 0.48 m/s
288.79 K, 205 kPa, x2 = 0	111.35 ± 2 m/s
288.96 K, 241 kPa, x2 = 0.146	113.61 ± 0.48 m/s
290.79 K, 231 kPa, x2 = 0.11	113.46 ± 0.48 m/s
291.2 K, 207 kPa, x2 = 0	111.92 ± 0.5 m/s
291.22 K, 217 kPa, x2 = 0.048	112.64 ± 0.48 m/s
291.37 K, 243 kPa, x2 = 0.146	114.18 ± 0.48 m/s
293.19 K, 218 kPa, x2 = 0.048	113.11 ± 0.48 m/s
293.86 K, 245 kPa, x2 = 0.146	114.77 ± 0.48 m/s
294.01 K, 245 kPa, x2 = 0.146	114.81 ± 0.48 m/s
294.82 K, 246 kPa, x2 = 0.146	115.01 ± 0.48 m/s
294.96 K, 235 kPa, x2 = 0.11	114.43 ± 0.48 m/s
295.16 K, 235 kPa, x2 = 0.11	114.49 ± 0.48 m/s
295.22 K, 220 kPa, x2 = 0.048	113.57 ± 0.48 m/s
295.26 K, 210 kPa, x2 = 0	112.82 ± 0.51 m/s
295.26 K, 220 kPa, x2 = 0.048	113.58 ± 0.48 m/s
295.28 K, 220 kPa, x2 = 0.048	113.59 ± 0.48 m/s
296.26 K, 247 kPa, x2 = 0.146	115.34 ± 0.48 m/s
297.13 K, 248 kPa, x2 = 0.146	115.54 ± 0.48 m/s and 115.55 ± 0.48 m/s
298.69 K, 250 kPa, x2 = 0.146	115.9 ± 0.48 m/s
300.46 K, 224 kPa, x2 = 0.048	114.77 ± 0.48 m/s
301.15 K, 215 kPa, x2 = 0	114.22 ± 0.48 m/s
301.17 K, 252 kPa, x2 = 0.146	116.47 ± 0.48 m/s
302.82 K, 226 kPa, x2 = 0.048	115.32 ± 0.48 m/s
302.91 K, 242 kPa, x2 = 0.11	116.26 ± 0.48 m/s
303.66 K, 254 kPa, x2 = 0.146	117.06 ± 0.48 m/s
303.67 K, 216 kPa, x2 = 0	114.79 ± 0.48 m/s
303.69 K, 217 kPa, x2 = 0	114.78 ± 0.48 m/s
306.23 K, 219 kPa, x2 = 0	115.37 ± 0.54 m/s
307.6 K, 230 kPa, x2 = 0.048	116.4 ± 0.48 m/s
308.64 K, 259 kPa, x2 = 0.146	118.2 ± 0.48 m/s
311.15 K, 261 kPa, x2 = 0.146	118.77 ± 0.49 m/s
311.27 K, 223 kPa, x2 = 0	116.48 ± 0.48 m/s
312.3 K, 234 kPa, x2 = 0.048	117.45 ± 0.48 m/s
312.47 K, 251 kPa, x2 = 0.11	118.45 ± 0.48 m/s
313.65 K, 264 kPa, x2 = 0.146	119.34 ± 0.48 m/s
314.99 K, 253 kPa, x2 = 0.11	119.04 ± 0.48 m/s
315.91 K, 237 kPa, x2 = 0.048	118.26 ± 0.48 m/s
316.18 K, 266 kPa, x2 = 0.146	119.91 ± 0.48 m/s
316.26 K, 226 kPa, x2 = 0	117.58 ± 0.48 m/s
317.39 K, 255 kPa, x2 = 0.11	119.56 ± 0.48 m/s
318.68 K, 268 kPa, x2 = 0.146	120.47 ± 0.48 m/s
319.74 K, 257 kPa, x2 = 0.11	120.07 ± 0.49 m/s
321.23 K, 230 kPa, x2 = 0	118.64 ± 0.48 m/s
322.15 K, 259 kPa, x2 = 0.11	120.6 ± 0.48 m/s
323.51 K, 273 kPa, x2 = 0.146	121.55 ± 0.48 m/s
323.74 K, 232 kPa, x2 = 0	119.18 ± 0.48 m/s
